The record followed here is US20170064957A1, “ACTIVE COMPOUND COMBINATIONS HAVING IN[…]” (BAYER CROPSCIENCE AKTIENGESELLSCHAFT, priority 2014, published 2017).

Common to all, as to type: in vivo
Assay [1] concerns larvae of the cotton boll worm (Heliothis armigera). Put plainly: Heliothis armigera - spray test. Conditions: cotton plants. The text has this: (§1) The expected activity for a given combination of two active compounds can be calculated according to S. R. Colby, Weeds 15 (1967), 20-22 as follows: • If • X is the kill rate, expressed in % of the untreated control, when active compound A is applied at an application rate of m g/ha or at a concentration of m ppm, • Y is the kill rate, expressed in % of the untreated control, when active compound B is applied at an application rate of n g/ha or at a concentration of n ppm and • E is the kill rate, expressed in % of the untreated control, when active compounds A and B is applied at application rates of m and n g/ha or at a concentration of m and n ppm, • then
Heliothis armigera—Spray Test
(§2) Solvent: 7 parts by weight of dimethylformamide Emulsifier: alkylaryl polyglycol ether
To produce a suitable preparation of active compound, 1 part by weight of active compound is mixed with the stated amount of solvent and is diluted with water, containing an emulsifier concentration of 1000 ppm, to the desired concentration. Further test concentrations are prepared by dilution with emulsifier containing water. Ammonium salt and/or penetration enhancer in a dosage of 1000 ppm are added to the desired concentration if necessary.
Cotton plants (Gossypium hirsutum) are treated by being sprayed with the preparation of the active compound of the desired concentration and are infested with larvae of the cotton boll worm (Heliothis armigera).
After the specified period of time, the mortality in % is determined. 100% means all caterpillars have been killed; 0% means none of the caterpillars have been killed. The mortality values determined thus are recalculated using the Colby-formula (see sheet 1).

Assay [2] deals with mustard beetle larvae (Phaedon cochleariae). The experiment in a line: Phaedon cochleariae - spray test. Conditions: Chinese cabbage leaf disks.
Description: as §1
Phaedon cochleariae—Spray Test
(§3) To produce a suitable preparation of active compound, 1 part by weight of active compound is mixed with the stated amount of solvents and is diluted with water, containing an emulsifier concentration of 1000 ppm, to the desired concentration. To produce a suitable preparation of a spore suspension the spores are diluted with emulsifier containing water to the desired concentration. Further test concentrations are prepared by dilution with emulsifier containing water.
Chinese cabbage (Brassica pekinensis) leaf disks are sprayed with a preparation of the active ingredient of the desired concentration. Once dry, the leaf disks are infested with mustard beetle larvae (Phaedon cochleariae).
After the specified period of time, mortality in % is determined. 100% means all beetle larvae have been killed and 0% means none of the beetle larvae have been killed. The mortality values determined thus are recalculated using the Colby-formula (see sheet 1).

The test system of assay [3] is two spotted spidermite (Tetranychus urticae). The experiment in a line: Tetranychus urticae - spray test OP-resistant. To be noted: French bean leaf disks.
Description: as §1
Tetranvchus Urticae—Spray Test OP-Resistant
as §3
French bean (Phaseolus vulgaris) leaf disks which are heavily infested with all stages of the two spotted spidermite (Tetranychus urticae), are sprayed with a preparation of the active ingredient of the desired concentration.
After the specified period of time, mortality in % is determined. 100% means all spider mites have been killed and 0% means none of the spider mites have been killed. The mortality values determined thus are recalculated using the Colby-formula (see sheet 1).

The test system of assay [4] is caterpillars of the fall army worm (Spodoptera frugiperda). The experiment in a line: Spodoptera frugiperda - spray test. Conditions: 0.1 ppm, cotton leaves.
Description: as §1
Spodoptera frugiperda—Spray Test
as §2
To produce a suitable preparation of active compound, 1 part by weight of active compound is mixed with the stated amount of solvent and is diluted with water, containing an emulsifier concentration of 1000 ppm, to the desired concentration. Further test concentrations are prepared by dilution with emulsifier containing water. Ammonium salt and/or penetration enhancer in a dosage of 1000 ppm are added if necessary.
Cotton leaves (Gossypium hirsutum) are treated by being sprayed with the preparation of the active compound of the desired concentration and are infested with caterpillars of the fall army worm (Spodoptera frugiperda).
After the specified period of time mortality in % is determined. 100% means all the caterpillars have been killed and 0% means none of the caterpillars have been killed. The mortality values determined thus are recalculated using the Colby-formula (see sheet 1).

`Cc1cc(C(F)(C(F)(F)F)C(F)(F)F)ccc1NC(=O)c1cccc(Cl)c1C(=O)NC(C)(C)C#N` [Compound of formula (II-6)]: the entries for the “Efficacy in % after 2d” value in assay [1] (0.1 ppm), in assay [1] (0.2 ppm) and in assay [1] (0.4 ppm) were 20%, 50% and 60%, respectively. Also, in assay [1] (0.4 ppm, 1 d), the “Efficacy in % after 1d” value worked out at 30%.

`CNC(=O)c1cc(Cl)cc(C)c1NC(=O)c1cc(Br)nn1-c1ncccc1Cl` [Chlorantraniliprole]: the “Efficacy in % after 6d” value in assay [2] (0.16 g ai/ha) is given as 0%.

`CNC(=O)c1cc(C#N)cc(C)c1NC(=O)c1cc(Br)nn1-c1ncccc1Cl` [Cyantraniliprole]: the “Efficacy in % after 6d” value in assay [1] (0.15 ppm, 6 d) is on record as 50%.

Consider `CNC(=O)c1cc(C#N)cc(C)c1NC(=O)c1cc(Cn2nnc(C(F)(F)F)n2)nn1-c1ncccc1Cl` [(II-2), 1-(3-chloropyridin-2-yl)-N-[4-cyano-2-methyl-6-(methylcarbamoyl)phenyl]-3-{[5-(trifluoromethyl)-2H-tetrazol-2-yl]methyl}-1H-pyrazole-5-carboxamide], for which the “Efficacy in % after 6d” value is on record as 0% in assay [2] (0.0064 g ai/ha) and 33% in assay [2] (0.032 g ai/ha).

For `Cc1cc(C(F)(C(F)(F)F)C(F)(F)F)ccc1NC(=O)c1cccc(I)c1C(=O)NC(C)(C)CS(C)(=O)=O` [Flubendiamide], the “Efficacy in % after 2d” value in assay [3] (0.8 g ai/ha), in assay [3] (4 g ai/ha) and in assay [4] (2 d) was 0% throughout. Besides, in assay [3] (0.8 g ai/ha, 6 d), the “Efficacy in % after 6d” value was 0%. Further, the “Efficacy in % after 1d” value in assay [4] (1 d) is given as 0%. Also, the “Efficacy in % after 3d” value in assay [4] (3 d) amounted to 0%.
